A melting point compilation (Tetko et al.; mined from patent text by program, amines drawn as free bases though some values may be those of a salt)

Row | melting point | SMILES
1 | 221 °C | CNC(=O)Nc1snc(N(C)C)c1C(N)=O
2 | 84 to 85 °C | COc1ccc(S(=O)(=O)c2ccnc(C)c2C)cc1
3 | 110 to 112 °C | CCOC(=O)c1nn(-c2ccccc2)c2c1Cc1ccccc1-2
4 | > 260 °C | O=C(CN1C(=O)c2ccccc2C1=O)NNC(=O)c1ncn2c1[C@@H]1CCN1C(=O)c1sccc1-2
5 | 106 to 108 °C | Cc1noc(C)c1Cn1cc(NC(=O)Cc2ccccc2)cn1
6 | 171 to 173 °C | O=C(O)[C@H]1C[C@@H](CP(=O)(O)O)c2ccccc2N1 (relative stereo)
7 | 123 to 125 °C | COC(=O)c1cccc(N)c1CS(=O)(=O)NC(C)(C)C
8 | 78 to 80 °C | CCN(CC)Cc1csc(N)c1C(=O)c1ccc(Cl)cc1
9 | 135 to 137 °C | O=C(NCc1ccccn1)Nc1cc(N2CC(COc3ccccc3)CC2=O)ccn1 (stereo not given)
10 | 160 °C | Cc1cccnc1COc1nn2c(-c3ccccc3)nnc2cc1N1CCCCC1
11 | 184 to 186 °C | Cc1c(CNC(=O)NO)c2cc(OCc3ccc4ccccc4n3)ccc2n1Cc1ccc(Cl)cc1
12 | 110 to 115 °C | CC(C#Cc1cccc(Oc2ccccc2)c1)N(O)C(N)=O (stereo not given)
13 | 90 to 92 °C | CCCCCS(=O)(=O)NC(=O)/C=C/c1ccc(OCCC2(C)OCCO2)cc1Oc1ncc(C(F)(F)F)cc1Cl
14 | 155 °C | CC(=O)Cn1cnc2c1c(=O)n(CC1CC1)c(=O)n2C1CCCC1
15 | 40 to 50 °C | CC(C)(C)OC(=O)NC(N)Cc1ccccc1 (stereo not given)
16 | 95 to 99 °C | CC(C(=O)O)c1c(-c2ccccc2)nn(-c2ccccc2)c1-c1ccccc1 (stereo not given)
17 | 102 to 104 °C | C#CCn1cccc1-c1nc(-c2ccc(OC)cc2)c(-c2ccc(OC)cc2)s1
18 | 147 °C | NCCNc1cc(-n2cccn2)nc(-c2cccs2)n1
19 | 115 to 116 °C | COc1cc(CSc2ccccn2)nc(N)n1
20 | 127 to 129 °C | CNC(=O)N1C(=S)C2(CCCCC2)NC12CCCCC2
21 | 175 to 177 °C | CNC(=O)Cc1ncc2c(n1)-c1ccc(Cl)cc1C(c1ccccc1F)=NC2
22 | 184 to 185 °C | COc1ccc(CNc2nc(NCCCc3ccc(C(C)=O)cc3)nc3ncccc23)cc1OC
23 | 128 to 130 °C | c1ccc(-c2cc3n(n2)CCNC3CC2CCCCC2)cc1 (racemic)
24 | 94 to 95 °C | CC(C(=O)O)c1ccc2c(c1)C(=O)CC(C(C)C)O2 (stereo not given)

Row | melting point | SMILES
25 | 47 to 49 °C | Fc1ccc2c(c1)C(=C1SCCCS1)CCO2
26 | 70 to 72 °C | CC(O)(CCCCl)c1ccc(-c2cccc(F)c2)cc1 (stereo not given)
27 | 182 to 183 °C | CN(C)C1CCN(C(=O)C2CCC(Nc3nccc(-n4ccc5c(OCCCS(C)(=O)=O)cccc54)n3)CC2)CC1 (stereo not given)
28 | 187 to 189 °C | Cc1ccc(F)cc1C(=O)Nc1ccc(C(=O)N2Cc3ccccc3Oc3ncccc32)cn1
29 | 90 °C | Clc1ccccc1C(c1ccc(-c2ccccc2)cc1)n1ccnc1 (stereo not given)
30 | 92 to 95 °C | C[Si](C)(C)CCC1=C(OC(=O)c2ccccc2)C(=O)c2ccccc2C1=O
31 | 88 to 90 °C | CC(=O)CSc1nc2ccccc2cc1-c1ccccc1
32 | 57 to 59 °C | COCC1CN(c2ccc(C3CCC(OCCC#N)CC3)cc2)C(=O)O1 (racemic)
33 | 233 to 235 °C | O=c1ccc(Oc2ccc3c(c2)CCC2(CCNCC2)O3)n[nH]1
34 | 70 to 72 °C | CCCc1cc(-c2noc3cc(OC)ccc23)ccc1OC
35 | 138 to 139 °C | CCOC(=O)c1n[nH]c(CC)c1Sc1cc(Cl)cc(Cl)c1
36 | 87 to 88 °C | CCc1cc2c(-c3ccccc3Cl)c(N)cnc2s1
37 | 134 to 136 °C | Cc1ccc2c(n1)N(CCCN1CCCC1)c1ccccc1N(C)C2=O
38 | 38 to 40 °C | CC(C)C[C@H](NC(=O)N1CCCCCC1)C(=O)N[C@H](Cc1ccc(OCc2ccccc2)cc1)C(=O)OC(C)(C)C
39 | 153 to 154 °C | CCCCCC(CC(=O)Nc1cc(C(=O)O)ccc1C(C)(C)C)c1ccc(OC)cc1OC (stereo not given)
40 | 200 to 202 °C | COC(=O)/C=C/c1ccc(/C=C/c2csc(NC(C)=O)n2)s1
41 | 106 °C | O=C(O)CCCCCCCCCCCCCCCCCCCCCN1C(=O)C=CC1=O
42 | 197 °C | Clc1ccc2c(c1)CCn1ccnc1C2=C1CCNCC1
43 | 65 to 67 °C | Cc1ccc(NCCOS(C)(=O)=O)c([N+](=O)[O-])c1
44 | 202 to 204 °C | Cn1cccc1C(=O)Nc1cccc(/C=C/C(=O)O)c1
45 | 157 to 158 °C | COC(=O)c1ccc(COc2ccc(-c3cc(O)c(SCCc4ccccc4)c(=O)o3)cc2)cc1
46 | 237 to 238 °C | CCOc1cc2c(c3c1OC(C)(C)C3)C(c1cccc(N3C(=O)NC(C)(C)C3=O)c1)=NC(C)(C)C2
47 | 75 to 77 °C | CCCCCN1C(=O)C(c2ccc3c(c2)OCO3)c2cccnc21 (stereo not given)
48 | 144 to 148 °C | O=C(O)C1COc2ccc(Cl)c(Cl)c2O1 (stereo not given)

Row | melting point | SMILES
49 | 156 to 160 °C | Nc1c(F)c(Oc2ccc(Cl)c(Cl)c2)nc(C(=O)O)c1Cl
50 | 132 to 134 °C | CCCc1c(O)c(C(C)=O)cc(Cl)c1OCCCOc1ccc2ccc(OCC(=O)O)cc2c1C(C)=O
51 | 175 to 177 °C | CCCOc1ccccc1-c1cc(C)c(C(=O)O)c(=O)[nH]1
52 | 75 °C | CC(C)(C)c1ccc(S(=O)(=O)N2c3ccccc3C[C@H]2C(=O)NCc2ccc(OCCC(=O)O)cc2)cc1
53 | 159 to 160 °C | N#Cc1ccc(OCCCCCCOc2ccc(-c3cc4ccc(C#N)cc4o3)cc2)cc1
54 | 120 to 121 °C | NS(=O)(=O)CCCCCSc1ccc2nccn2n1
55 | 216 to 218 °C | O=C(O)Cc1c(-c2cccs2)nn(-c2ccccc2)c1-c1cccs1
56 | 138 to 140 °C | CN1CS(=O)c2cccc(Br)c21 (stereo not given)
57 | 235 to 237 °C | O=C(C=Cc1ccccc1)Nc1ccc(S(=O)(=O)O)cc1
58 | 208 to 209 °C | CCc1nc2cnc3cc(Br)ccc3c2n1CC1CCN(C(=O)OC(C)(C)C)CC1
59 | 177 to 178 °C | N#CN=C(Nc1cccnc1)NC(NC(=O)c1ccc(Cl)cc1)C(F)(F)C(F)(F)F (stereo not given)
60 | 158 to 160 °C | CS(=O)(=O)c1ccc(-n2nc(-c3ccc(F)cc3)cc2C(F)(F)F)cc1
61 | 156 to 157 °C | Brc1ccc2sc(-c3ccccc3)c(N3CCN(Cc4ccccc4)CC3)c2c1
62 | 223 to 224 °C | CC1CN(C)CC=C1C(=O)N1c2ccccc2NC(=O)c2ccccc21 (stereo not given)
63 | 235 to 236 °C | Cn1c(Nc2cccc(C(F)(F)F)c2)nc2c(-c3cccc(C(=O)NCCO)c3)cccc21
64 | 87 to 90 °C | Cc1nn(C)c2c(Cl)nc(C3CC3)nc12
65 | 108 to 109 °C | COC(=O)c1cncn1C1c2ccccc2CSC1(C)C (stereo not given)
66 | 154 to 155 °C | Cc1c(C)c2c(c(C)c1O)CCC(C)(C(=S)N1CCN(c3ccc(Cl)cc3)CC1)O2 (stereo not given)
67 | 82 to 84 °C | Cc1cc(OCC(O)CNC(C)(C)C)ccc1C=O (stereo not given)
68 | 116 to 118 °C | N#Cc1cc(Oc2ccc(Cl)cc2)ccc1N
69 | 163 to 165 °C | CC(=O)N1CCC(O)(Cn2nc(-c3c(-c4ccccc4)nn4ccccc34)ccc2=O)CC1
70 | 125 to 130 °C | CCc1oc2ccccc2c1C(=O)N(Cc1ccccc1)Cc1ccc2c(Br)c(O)ccc2c1
71 | 203 to 205 °C | CCOC(=O)c1cn(-c2nc(NC(C)(C)C)c(F)cc2F)c2c(Cl)c(F)c(F)cc2c1=O
72 | 193 to 195 °C | Cc1nn(C)c(N)c1C#N

Row | melting point | SMILES
73 | 150 to 152 °C | CN1C(=O)C([S-])=C(SC(N)=[NH2+])C1=O
74 | 82 to 87 °C | CCO[C@@H]1[C@@H](OC)[C@H](C)O[C@@H](ON=Cc2ccc(C#Cc3ccc(OC(F)(F)F)cc3)cc2)[C@@H]1OC
75 | 78 to 79 °C | CCOCc1cc2ccccc2oc1=Nc1ccc(OC)cc1
76 | 56 to 63 °C | O=C(NC(Cc1c[nH]c2ccccc12)C(=O)C(=O)CCl)OC1C2CC3CC(C2)CC1C3 (stereo not given)
77 | 201 to 203 °C | CCOc1cc2cc3c(Nc4cc(OC)c(Cl)cc4C)c(C#N)cnc3cc2cc1OCCN1CCOCC1
78 | 263 to 264 °C | O=c1nc(Nc2ccc(I)cc2)sc2ncccc12
79 | 259 to 261 °C | COC(=O)c1ccc2ncc(C(=S)NCc3ccc(Cl)cc3)c(O)c2c1
80 | 47 to 48 °C | CC1OC1COc1ccc(C(=O)OC(C)(C)C)cc1 (stereo not given)
81 | 161 to 162 °C | COc1cccc(CN2CCc3cc(O)c(OC)cc3C2)c1
82 | 65.5 to 66.5 °C | CCOC(=O)CC[C@@H](C(=O)OCC)N1C(=O)c2ccc([N+](=O)[O-])cc2C1=O
83 | 264 °C | CCOC(=O)c1nc2ccc([N+](=O)[O-])cc2c(O)c1C(=O)OCC
84 | 109 to 112 °C | Cc1cc(Cl)ccc1-c1cccc2c1OC(CN)CN2C (stereo not given)
85 | 115 °C | O=c1nc(-c2cccc(C(F)(F)F)c2)sc2ccccc12
86 | 83 to 85 °C | Cc1nn(-c2cccc(C(F)(F)F)c2)c(C)c1CC(=O)O
87 | 68 to 70 °C | COc1nc(OC)nc(C2CC2)n1
88 | 182 °C | COc1cc(N)c(Cl)cc1C(=O)Nc1cc(OC)c(C(=O)N[C@H]2CCN(CCCOc3ccc(F)cc3)C[C@H]2OC)cc1Cl (relative stereo)
89 | 230 to 231 °C | CCc1c(NC(=O)c2ccc(Br)cc2)ccc2cc(CN3CCCC3)cnc12
90 | 97 to 98 °C | O=C(N(Cc1cccnc1)c1ccc(F)cc1)C(F)(F)F
91 | 143 to 144 °C | N/C(=C1/Sc2ccccc2C1=O)c1ccccc1Br
92 | > 300 °C | CC(C)(C)NC(=O)Nc1ccc(-c2c[nH]c(=O)cn2)cc1
93 | 197 to 204 °C | COc1ccc2c(c1)cc(C(=O)O)n2-c1ccccc1
94 | 140 to 141 °C | c1ccc(Cn2c3ccccc3c3cc(-c4nc(C5CC5)no4)sc32)cc1

Row | SMILES | melting point
95 | CN1CCC(c2c[nH]c3ccc(Br)cc23)C1 (stereo not given) | 152 to 154 °C
96 | COc1cc(OC)c(CNCCc2ccc(O)cc2)cc1O | 170 to 173 °C
97 | c1cnc2cc3c(cc2n1)CCNCC3 | 114 to 116 °C
98 | COc1ccc2c(c1)c(C1CCN(Cc3ccc(OC)c(C(=O)O)c3)CC1)cn2CCc1ccsc1 | 229 to 230 °C
99 | CC(=O)Nc1ccc(P(=O)(O)O)cc1 | 228 °C
100 | COC(=O)c1coc(-c2ncn3c2CN(C)C(=O)c2c(Cl)cccc2-3)n1 | 266 to 268 °C
